Here are results for twelve compounds from ChEMBL document CHEMBL3352031, “Discovery of diamine-linked 17-aroylamido-17-demethoxygeldanamycins as potent Hsp90 inhibitors” (Eur J Med Chem, 2014).

The source made the active and inactive calls. No cut-off for these calls is given here.

Data set [1] concerns Mus musculus. As to the kind of experiment: Hepatotoxicity in Kunming mouse assessed as serum aspartate aminotransferase level at 10 mg/kg, iv (reference value: 197.2 +/- 11.2 U/L). The format is toxicity, organism-based. Details: dose 10 mg/kg, route intravenous. The note with it: in vivo.
The test system of data set [2] is Mus musculus. The data set can be described thus: Hepatotoxicity in Kunming mouse assessed as serum alanine aminotransferase level at 10 mg/kg, iv (reference value: 60.7 +/- 6.9U/L). The note with it: in vivo. Details: dose 10 mg/kg, route intravenous. It counts as toxicity, organism-based.
For data set [3], the target named is Heat shock protein HSP 90-alpha (Homo sapiens, UniProt P07900). As to the kind of experiment: Inhibition of GA-FITC binding to human recombinant Hsp90alpha incubated for 5 hrs by fluorescence polarization assay.
Data set [4] deals with T1, Heat shock protein HSP90 (Homo sapiens) (UniProt P07900+P08238). The data set can be described thus: Inhibition Hsp90 in human MDA-MB 231 cells assessed as reduction in CDK4 protein level at 0.5 and 5 uM incubated for 24 hrs by Western blot method. The format is cell-based.
Data set [5] has as its target T1, Heat shock protein HSP90 (Homo sapiens). As to the kind of experiment: Inhibition Hsp90 in human MDA-MB 231 cells assessed as reduction in AKT protein level at 0.5 and 5 uM incubated for 24 hrs by Western blot method. The format is cell-based.
Data set [6] has the same target. As to the kind of experiment: Inhibition Hsp90 in human MDA-MB 231 cells assessed as reduction in EGFR protein level at 0.5 and 5 uM incubated for 24 hrs by Western blot method. It counts as cell-based.
For data set [7] the target is unchanged. As to the kind of experiment: Inhibition Hsp90 in human MDA-MB 231 cells assessed as reduction in HER2 protein level at 0.5 and 5 uM incubated for 24 hrs by Western blot method. The format is cell-based.
The nature of data set [8]: Safety index, ratio of IC50 for 17-AAG to IC50 for test compound against HUVEC cells after 72 hrs by MTT assay. It counts as ADME, cell-based. The note with it: human, read-out: Ratio IC50.
Data set [9] can be described thus: Safety index, ratio of IC50 for GA to IC50 for test compound against HUVEC cells after 72 hrs by MTT assay. It counts as cell-based. The note with it: human, read-out: Ratio IC50.
A short description of data set [10]: Safety index, ratio of IC50 for 17-AAG to IC50 for test compound against human HL7702 cells after 72 hrs by MTT assay. It counts as cell-based, L02. The note with it: read-out: Ratio IC50.
Data set [11] can be described thus: Safety index, ratio of IC50 for GA to IC50 for test compound against human HL7702 cells after 72 hrs by MTT assay. It counts as ADME, cell-based, L02. The note with it: read-out: Ratio IC50.
Data set [12] deals with MDA-MB-231. The data set can be described thus: Antitumor activity against human MDA-MB-231 cells xenografted in athymic nude mouse assessed as tumor growth inhibition at 10 mg/kg, iv dosed every 3 day for 15 consecutive days. It counts as functional. The note with it: MDA-MB-231, 72 h, read-out: TGI.
Data set [13] has as its system MDA-MB-231. The data set can be described thus: Antitumor activity against human MDA-MB-231 cells xenografted in athymic nude mouse assessed as reduction in tumor weight at 10 mg/kg, iv dosed every 3 day for 15 consecutive days. It counts as functional.
Data set [14] has as its system MDA-MB-231. As to the kind of experiment: cells. The note with it: Homo sapiens, MDA-MB-231, 72 h.
Description: Cytotoxicity against human MDA-MB-231 cells after 72 hrs by MTT assay
For data set [15], the system named is HUVEC. As to the kind of experiment: cells. The note with it: Homo sapiens, 72 h.
Description: Cytotoxicity against HUVEC cells after 72 hrs by MTT assay
Data set [16] in a line: cells. The note with it: Homo sapiens, L02, 72 h.
Description: Cytotoxicity against human HL7702 cells after 72 hrs by MTT assay
In data set [17] the test system is A549. The data set can be described thus: cells. The note with it: Homo sapiens, A549, 72 h.
Description: Cytotoxicity against human A549 cells after 72 hrs by MTT assay
Data set [18] has as its system HeLa. As to the kind of experiment: cells. The note with it: Homo sapiens, 72 h.
Description: Cytotoxicity against human HeLa cells after 72 hrs by MTT assay
Data set [19] concerns A-431. The data set can be described thus: cells. The note with it: Homo sapiens, A-431, 72 h.
Description: Cytotoxicity against human A431 cells after 72 hrs by MTT assay
Data set [20] can be described thus: cells. The note with it: Homo sapiens, BGC-823, 72 h.
Description: Cytotoxicity against human BGC823 cells after 72 hrs by MTT assay
Data set [21] relates to SW480. The data set can be described thus: cells. The note with it: Homo sapiens, SW480, 72 h.
Description: Cytotoxicity against human SW480 cells after 72 hrs by MTT assay
For data set [22], the system named is HepG2. As to the kind of experiment: cells. The note with it: Homo sapiens, HepG2, 72 h.
Description: Cytotoxicity against human HepG2 cells after 72 hrs by MTT assay

With `COc1cc(/C=C/C(=O)NCCCCCCNC2=C3C[C@@H](C)C[C@H](OC)[C@H](O)[C@@H](C)/C=C(\C)[C@H](OC(N)=O)[C@@H](OC)/C=C\C=C(/C)C(=O)NC(=CC2=O)C3=O)cc(OC)c1OC`, the Activity stood at 181 U/L in data set [1] and 40.4 U/L in [2]. Moreover, the IC50 came to 290 nM in data set [3]; 190 nM in [14]; 1350 nM in data set [15]; 4950 nM in [16]; 278 nM in [17]; 284 nM in [18]. The IC50 amounted to 773 nM in data set [19], 527 nM in data set [20], 796 nM in data set [21] and 562 nM in [22]. Further, the inhibition result in data set [4], in data set [5], in data set [6] and in data set [7] was “Active” in each case. Besides, the selectivity ratio at 72 h in [8] was found to be 5; in data set [9], 68; in [10], 50; in data set [11], 35. Further, the inhibition in vivo at 10 mg/kg in data set [12] was 81%. In addition, the T/C in [13] turned out to be 21%.

`COc1cc(/C=C/C(=O)NCCCCNC2=C3C[C@@H](C)C[C@H](OC)[C@H](O)[C@@H](C)/C=C(\C)[C@H](OC(N)=O)[C@@H](OC)/C=C\C=C(/C)C(=O)NC(=CC2=O)C3=O)ccc1O`: the figures for the Activity in data set [1] and in data set [2] were 224.8 U/L and 75.3 U/L, respectively. Further, the results for the IC50 in [3] and in data set [14] were 970 nM and 550 nM, respectively.

On to `COc1cc(/C=C/C(=O)NCCCCCCNC2=C3C[C@@H](C)C[C@H](OC)[C@H](O)[C@@H](C)/C=C(\C)[C@H](OC(N)=O)[C@@H](OC)/C=C\C=C(/C)C(=O)NC(=CC2=O)C3=O)ccc1O`, for which the Activity in data set [1] is 199.3 U/L; in data set [2] it was 72.7 U/L. The IC50 in data set [3] is 470 nM; in [14], 270 nM.

Turning to `C=CCNC1=C2C[C@@H](C)C[C@H](OC)[C@H](O)[C@@H](C)/C=C(\C)[C@H](OC(N)=O)[C@@H](OC)/C=C\C=C(/C)C(=O)NC(=CC1=O)C2=O` [TANESPIMYCIN], the Activity stood at 237.4 U/L in data set [1] and 66.6 U/L in data set [2]. In [12], the inhibition in vivo at 10 mg/kg came out at 73%. Besides, in data set [13], the T/C turned out to be 28%. Moreover, the IC50 in data set [14] amounted to 280 nM; in [15], 282 nM; in data set [16] it was 99 nM; in data set [17] it was 81 nM; in data set [18], 128 nM; in data set [19], 89 nM. Further, the values for the IC50 in [20], in [21] and in data set [22] were 847 nM, 572 nM and 91 nM, respectively.

Consider `COC1=C2C[C@@H](C)C[C@H](OC)[C@H](O)[C@@H](C)/C=C(\C)[C@H](OC(N)=O)[C@@H](OC)/C=C\C=C(/C)C(=O)NC(=CC1=O)C2=O` [GELDANAMYCIN], for which the Activity in [1] was 317.2 U/L; in data set [2], 273 U/L.

`COc1cc(/C=C/C(=O)N2CCC(CNC3=C4C[C@@H](C)C[C@H](OC)[C@H](O)[C@@H](C)/C=C(\C)[C@H](OC(N)=O)[C@@H](OC)/C=C\C=C(/C)C(=O)NC(=CC3=O)C4=O)CC2)ccc1O`: the figures for the Activity in data set [1] and in data set [2] were 260.8 U/L and 148.6 U/L, respectively. Also, the IC50 in data set [3] stood at 1840 nM; in [14] it was 940 nM.

As for `COc1ccc(/C=C/C(=O)NCCCCCCNC2=C3C[C@@H](C)C[C@H](OC)[C@H](O)[C@@H](C)/C=C(\C)[C@H](OC(N)=O)[C@@H](OC)/C=C\C=C(/C)C(=O)NC(=CC2=O)C3=O)cc1OC`, the Activity amounted to 193.4 U/L in data set [1] and 52.8 U/L in data set [2]. The IC50 in [3] was 410 nM; in [14] it was 300 nM.

Turning to `COc1ccc(/C=C/C(=O)NCCCCCCNC2=C3C[C@@H](C)C[C@H](OC)[C@H](O)[C@@H](C)/C=C(\C)[C@H](OC(N)=O)[C@@H](OC)/C=C\C=C(/C)C(=O)NC(=CC2=O)C3=O)cc1`, 4540 nM corresponded to half-maximal inhibition in data set [14] (IC50).

`CO[C@H]1/C=C\C=C(/C)C(=O)NC2=CC(=O)C(NCCCCCCNC(=O)c3ccccn3)=C(C[C@@H](C)C[C@H](OC)[C@H](O)[C@@H](C)/C=C(\C)[C@@H]1OC(N)=O)C2=O` yielded an IC50 in data set [14] of 1730 nM.

Turning to `CO[C@H]1/C=C\C=C(/C)C(=O)NC2=CC(=O)C(NCCCCCCNC(=O)c3nc(C)c(C)nc3C)=C(C[C@@H](C)C[C@H](OC)[C@H](O)[C@@H](C)/C=C(\C)[C@@H]1OC(N)=O)C2=O`, half-maximal inhibition in [14] (IC50) was put at 3120 nM.

For the compound `CO[C@H]1/C=C\C=C(/C)C(=O)NC2=CC(=O)C(NCC3CCN(C(=O)/C=C/c4ccc(O)cc4)CC3)=C(C[C@@H](C)C[C@H](OC)[C@H](O)[C@@H](C)/C=C(\C)[C@@H]1OC(N)=O)C2=O`, 1680 nM corresponded to half-maximal inhibition in [14] (IC50).

`CO[C@H]1/C=C\C=C(/C)C(=O)NC2=CC(=O)C(NCCCCCCNC(=O)c3ccc(Br)cc3)=C(C[C@@H](C)C[C@H](OC)[C@H](O)[C@@H](C)/C=C(\C)[C@@H]1OC(N)=O)C2=O` yielded an IC50 in data set [14] of 4650 nM.
